Our source for the IC50 values is ChEMBL document CHEMBL1129004, “Synthesis and in vitro cytotoxicity of cis-(glycolato-O,O)-[2-substituted-(4R,5R)-4,5-bis(aminomethyl)-1,3-dioxolane]platinum (II)” (Bioorg Med Chem Lett, 1996).

Holding throughout (type): functional, cell-based
One assay has as its system PC-14. The experiment in a line: Compound was tested in vitro for cytotoxic activity against PC-14 human non-small cell lung cancer cell line by MTT assay. Background: Formazan colour is commonly taken as a measure of viable cells.
For assay [1], the system named is KATO III stomach cancer cell line. The experiment in a line: Compound was tested in vitro for cytotoxic activity against KATO III human stomach cancer cell line by MTT assay.
For another assay, the system named is MKN-45. Description: Compound was tested in vitro for cytotoxic activity against MKN-45 human stomach cancer cell line by MTT assay.
Another assay relates to PC-9. Description: Compound was tested in vitro for cytotoxic activity against PC-9 human non-small cell lung cancer cell line by MTT assay.

In the case of CARBOPLATIN, the half-maximal inhibitory concentration (IC50) is 9.7 µM with PC-14, 49.7 µM in assay [1], 32.4 µM with MKN-45 and 60.5 µM with PC-9.
In the same order, the values of CISPLATIN are 1.5 µM, 5.2 µM, 3.7 µM and 5 µM.

A word on the IC50: it is the concentration that inhibits the measured activity by half. Low values mean greater potency in that assay, high ones weaker potency in that assay.
